Literature values in publication PMC2552397 (Journal of medicinal chemistry, 2008).

Legend:
K562 tumor cell line = settings: in words
GGPPS = biological target: T1, GGPPS (Homo sapiens, UniProt O95749); settings: in words
T1 sequence (O95749 1-300): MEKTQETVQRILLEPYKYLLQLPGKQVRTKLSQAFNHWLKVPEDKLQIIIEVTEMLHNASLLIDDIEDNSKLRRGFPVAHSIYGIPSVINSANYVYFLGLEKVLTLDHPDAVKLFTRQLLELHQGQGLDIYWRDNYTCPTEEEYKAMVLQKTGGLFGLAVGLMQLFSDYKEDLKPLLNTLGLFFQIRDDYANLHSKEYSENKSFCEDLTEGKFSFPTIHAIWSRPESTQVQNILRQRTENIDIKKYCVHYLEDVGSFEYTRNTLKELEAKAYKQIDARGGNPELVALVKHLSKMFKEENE

| Structure (SMILES) | activity against a K562 tumor cell line (K562 tumor cell line) | activity against GGPPS (GGPPS) |
| --- | --- | --- |
| CC(C)=CCC/C(C)=C/CC(C/C=C(\C)CCC=C(C)C)(P(=O)(O)O)P(=O)(O)O [compound 5, digeranyl methylene bisphosphonate] | potent activity | potent activity |
| CCCCCCCCCC(O)(P(=O)(O)O)P(=O)(O)O [compound 4] |  | quite potent activity |
